# Measurements published in US5858736A, “Preparation of lactams from aliphatic α,ω-dinitriles” (priority 1996, dated 1999).
# How the values were obtained:
# physchem = conditions: 20 mm phosphate buffer, pH 7, aqueous buffer
# [1] = cited from earlier work
# [2] = pKa of acid and protonated amine groups / ionization at reaction pH; type: physicochemical; conditions: calculated, reaction mixture pH of between 9 and 10
# [3] = Solubility of dinitrile in the aqueous cell suspension; type: physicochemical; conditions: aqueous cell suspension of Acidovorax facilis 72W, two-phase above this concentration; read-out: concentration above which the solubility of the dinitrile was exceeded
# [4] = Lange's Handbook of Chemistry, 14th edn.
structure (smiles),measurement,setting,value
N#CCCCCC#N [adiponitrile],solubility,physchem,~600 mM
CN [methylamine],pKa for the protonated amine (methylamine),[1]; in water,10.62
N.NCCCCCC(=O)O [6-aminocaproic acid ammonium salt],fraction of amine groups protonated,[2],approximately half
NCCCCCC(=O)O [6-aminocaproic acid],fraction existing in solution as the ammonium salt of the carboxylic acid,[2],at least 99.997%
same,pKa of the carboxylic acid group,[1]; [4],4.373
same,pKa of the protonated amine group,[1]; [4],10.804
C=C(C#N)CCC#N [2-methyleneglutaronitrile],solubility,[3],≤ 400 mM
